Each structure is given as a SMILES string.

Experiment [1] has as its target T1, hVR1 (Homo sapiens, UniProt Q8NER1).
T1 construct: expressed in transfected cells; host or cells: HEK293
Put plainly: Human VR1 (hVR1) Functional Assay (FLIPR intracellular calcium, capsaicin challenge). It counts as cell-based. The note with it: capsaicin 0.030 μM, HEK293 cells expressing hVR1; for inhibition at 1 µM: test concentration 1 μM. (Calcium assays in cells follow changes in intracellular calcium, usually with a dye or a luminescent sensor.)

Experiment [2] deals with T1, hVR1. The experiment can be described thus: Human VR1 (hVR1) Binding Assay ([3H] RTX binding). The note with it: inhibition of [3H] RTX binding, membranes of HEK293 cells transfected with hVR1.

T1 sequence (Q8NER1 whole entry): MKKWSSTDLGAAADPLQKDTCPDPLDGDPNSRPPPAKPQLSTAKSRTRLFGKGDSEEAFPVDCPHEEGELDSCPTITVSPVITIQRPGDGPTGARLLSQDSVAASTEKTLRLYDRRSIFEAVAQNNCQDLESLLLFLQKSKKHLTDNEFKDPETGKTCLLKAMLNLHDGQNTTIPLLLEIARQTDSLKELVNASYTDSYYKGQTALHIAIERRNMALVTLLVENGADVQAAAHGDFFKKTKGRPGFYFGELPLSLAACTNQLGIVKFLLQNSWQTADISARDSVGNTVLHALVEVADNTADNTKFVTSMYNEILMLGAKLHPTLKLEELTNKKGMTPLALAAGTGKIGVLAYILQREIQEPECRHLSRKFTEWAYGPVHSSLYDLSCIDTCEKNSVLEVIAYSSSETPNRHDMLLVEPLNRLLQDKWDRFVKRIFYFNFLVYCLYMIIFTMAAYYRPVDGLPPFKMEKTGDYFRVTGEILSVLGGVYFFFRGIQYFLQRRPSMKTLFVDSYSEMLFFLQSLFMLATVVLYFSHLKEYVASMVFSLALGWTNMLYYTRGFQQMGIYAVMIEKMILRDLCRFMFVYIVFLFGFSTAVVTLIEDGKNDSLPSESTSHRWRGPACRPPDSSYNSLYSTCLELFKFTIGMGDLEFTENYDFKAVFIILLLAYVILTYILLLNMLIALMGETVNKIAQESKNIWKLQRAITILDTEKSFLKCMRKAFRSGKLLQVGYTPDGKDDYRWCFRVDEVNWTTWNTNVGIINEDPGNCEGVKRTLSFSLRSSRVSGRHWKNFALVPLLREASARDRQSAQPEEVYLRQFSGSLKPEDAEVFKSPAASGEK

On to `CNS(=O)(=O)c1ccccc1-c1ccc2[nH]c(/C=C/c3ccc(C(F)(F)F)c(F)c3)nc2c1` [Cpd 319, (E)-2-{2-[2-(3-fluoro-4-trifluoromethyl-phenyl)-vinyl]-1H-benzimidazol-5-yl}-N-methyl-benzenesulfonamide], for which, in experiment [1], the IC50 (commonly the concentration at which inhibition is half-maximal) worked out at 10 nM and the inhibition (as a rule, the relative decrease from the control value, in per cent) at 1 µM was 100%. For the same compound, affinity in experiment [2] was put at a Ki of 6 nM.

Turning to `CC(=O)c1ccccc1-c1ccc2[nH]c(/C=C/c3ccc(C(C)(C)C)cc3)nc2c1` [Cpd 1, (E)-1-(2-{2-[2-(4-tert-butyl-phenyl)-vinyl]-1H-benzimidazol-5-yl}-phenyl)-ethanone], in experiment [1], the IC50 came out at 27 nM and the inhibition at 1 µM came to 100%. Affinity in experiment [2] was put at a Ki of 9.7 nM.

Regarding `CC(=O)c1ccccc1-c1ccc2[nH]c(/C=C/c3ccc(C(F)(F)F)cc3)nc2c1` [Cpd 15, (E)-1-(2-{2-[2-(4-trifluoromethyl-phenyl)-vinyl]-1H-benzimidazol-5-yl}-phenyl)-ethanone], in experiment [1], the IC50 was 120 nM and the inhibition at 1 µM stood at 100%. For the same compound, the affinity in experiment [2] corresponds to a Ki of 41 nM.

In the case of `CC(=O)c1ccccc1-c1ccc2[nH]c(/C=C/c3ccc(S(=O)(=O)C(F)(F)F)cc3)nc2c1` [Cpd 40, (E)-1-(2-{2-[2-(4-trifluoromethanesulfonyl-phenyl)-vinyl]-1H-benzimidazol-5-yl}-phenyl)-ethanone], in experiment [1], the half-inhibitory concentration (IC50) came to 54 nM and the inhibition at 1 µM was 99%. Besides, the affinity in experiment [2], expressed as Ki, was 81 nM.

On to `NS(=O)(=O)c1ccccc1-c1ccc2[nH]c(/C=C/c3ccc(Cl)cc3)nc2c1` [Cpd 79, (E)-2-{2-[2-(4-chloro-phenyl)-vinyl]-1H-benzimidazol-5-yl}-benzenesulfonamide], for which, in experiment [1], the IC50 worked out at 7 nM and the inhibition at 1 µM was 100%. In addition, the Ki (as a rule, the equilibrium dissociation constant of an inhibitor or competing ligand from its target) in experiment [2] came to 18 nM.

`CC(C)(C)c1ccc(CCc2nc3cc(-c4ccccc4O)ccc3[nH]2)cc1` [Cpd 32, 2-{2-[2-(4-tert-butyl-phenyl)-ethyl]-1H-benzimidazol-5-yl}-phenol]: in experiment [1], the IC50 worked out at 380 nM and the inhibition at 1 µM stood at 77%. Also, affinity in experiment [2] was put at a Ki of 100 nM.

As to `CC(=O)c1ccccc1-c1ccc2[nH]c(/C=C/c3ccc(F)c(F)c3)nc2c1` [Cpd 27, (E)-1-(2-{2-[2-(3,4-difluoro-phenyl)-vinyl]-1H-benzimidazol-5-yl}-phenyl)-ethanone], in experiment [1], the IC50 came to 260 nM and the inhibition at 1 µM came out at 100%. Moreover, in experiment [2], the Ki turned out to be 1800 nM.

On to `CNS(=O)(=O)c1ccccc1-c1ccc2[nH]c(/C=C/c3ccc(Br)cc3)nc2c1` [Cpd 312, (E)-2-{2-[2-(4-bromo-phenyl)-vinyl]-1H-benzimidazol-5-yl}-N-methyl-benzenesulfonamide], for which, in experiment [1], the IC50 worked out at 6 nM and the inhibition at 1 µM amounted to 100%. In experiment [2], this compound displayed a Ki of 19 nM.

On to `CC(=O)Nc1ccccc1-c1cc2nc(/C=C/c3ccc(C(C)(C)C)cc3)[nH]c2cc1C(F)(F)F` [Cpd 50, (E)-N-(2-{2-[2-(4-tert-butyl-phenyl)-vinyl]-6-trifluoromethyl-1H-benzimidazol-5-yl}-phenyl)-acetamide], for which, in experiment [1], the IC50 was 100 nM and the inhibition at 1 µM was 100%. In addition, the Ki in experiment [2] came to 16 nM.

Regarding `NS(=O)(=O)c1ccccc1-c1ccc2[nH]c(/C=C/c3ccc(OC(F)(F)F)cc3)nc2c1` [Cpd 69, (E)-2-{2-[2-(4-trifluoromethoxy-phenyl)-vinyl]-1H-benzimidazol-5-yl}-benzenesulfonamide], in experiment [1], the IC50 amounted to 6 nM and the inhibition at 1 µM worked out at 98%. In experiment [2], this compound showed a Ki of 6 nM.

For `CC(C)(C)c1ccc(/C=C/c2nc3cc(-c4ccccc4CO)c(C(F)(F)F)cc3[nH]2)cc1` [Cpd 51, (E)-(2-{2-[2-(4-tert-butyl-phenyl)-vinyl]-6-trifluoromethyl-1H-benzimidazol-5-yl}-phenyl)-methanol], in experiment [1], the IC50 came out at 66 nM and the inhibition at 1 µM was determined as 100%. In experiment [2], this compound displayed a Ki of 6.4 nM.

As for `CC(=O)Nc1ccccc1-c1ccc2[nH]c(/C=C/c3ccc(C(C)(C)C)cc3)nc2c1` [Cpd 4, (E)-N-(2-{2-[2-(4-tert-butyl-phenyl)-vinyl]-1H-benzimidazol-5-yl}-phenyl)-acetamide], in experiment [1], the IC50 came out at 400 nM and the inhibition at 1 µM turned out to be 78%. In experiment [2], this compound yielded a Ki of 31 nM.

For the compound `CC(C)(C)c1ccc(/C=C/c2nc3cc(-c4ccccc4C(N)=O)ccc3[nH]2)cc1` [Cpd 5, (E)-2-{2-[2-(4-tert-butyl-phenyl)-vinyl]-1H-benzimidazol-5-yl}-benzamide], in experiment [1], the IC50 amounted to 71 nM and the inhibition at 1 µM was 100%. In experiment [2], this compound showed a Ki of 17 nM.

With `Oc1ccccc1-c1ccc2[nH]c(/C=C/c3ccc(C(F)(F)F)cc3)nc2c1` [Cpd 14, (E)-2-{2-[2-(4-trifluoromethyl-phenyl)-vinyl]-1H-benzimidazol-5-yl}-phenol], in experiment [1], the IC50 amounted to 1000 nM and the inhibition at 1 µM came to 49%. Further, the affinity in experiment [2] corresponds to a Ki of 380 nM.

`NS(=O)(=O)c1ccccc1-c1ccc2[nH]c(/C=C/c3ccc(S(=O)(=O)C(F)(F)F)cc3)nc2c1` [Cpd 71, (E)-2-{2-[2-(4-trifluoromethanesulfonyl-phenyl)-vinyl]-1H-benzimidazol-5-yl}-benzenesulfonamide]: in experiment [1], the IC50 was found to be 22 nM and the inhibition at 1 µM was determined as 99%. For the same compound, the Ki in experiment [2] worked out at 22 nM.

On to `CC(C)(C)c1ccc(/C=C/c2nc3cc(-c4ccccc4O)ccc3[nH]2)cc1` [Cpd 3, (E)-2-{2-[2-(4-tert-butyl-phenyl)-vinyl]-1H-benzimidazol-5-yl}-phenol], for which, in experiment [1], the IC50 worked out at 140 nM. Besides, the affinity in experiment [2], expressed as Ki, was 20 nM.

Take `CNS(=O)(=O)c1ccccc1-c1ccc2[nH]c(/C=C/c3ccc(N(C)C)cc3)nc2c1` [Cpd 318, (E)-2-{2-[2-(4-dimethylamino-phenyl)-vinyl]-1H-benzimidazol-5-yl}-N-methyl-benzenesulfonamide]: in experiment [1], the IC50 came out at 50 nM and the inhibition at 1 µM is 100%.

As to `NS(=O)(=O)c1ccccc1-c1ccc2[nH]c(/C=C/c3cc(F)c(F)cc3F)nc2c1` [Cpd 371, (E)-2-{2-[2-(2,4,5-trifluoro-phenyl)-vinyl]-1H-benzimidazol-5-yl}-benzenesulfonamide], in experiment [1], the IC50 is 18 nM and the inhibition at 1 µM came out at 98%.

For `NS(=O)(=O)c1ccccc1-c1ccc2[nH]c(/C=C/c3ccc(F)cc3F)nc2c1` [Cpd 357, (E)-2-{2-[2-(2,4-difluoro-phenyl)-vinyl]-1H-benzimidazol-5-yl}-benzenesulfonamide], in experiment [1], the IC50 was 8 nM and the inhibition at 1 µM came to 100%.

As for `NS(=O)(=O)c1cc(C(F)(F)F)ccc1-c1ccc2[nH]c(CCc3ccc(C(F)(F)F)cc3)nc2c1` [Cpd 447, 5-trifluoromethyl-2-{2-[2-(4-trifluoromethyl-phenyl)-ethyl]-1H-benzimidazol-5-yl}-benzenesulfonamide], in experiment [1], the IC50 was 44 nM and the inhibition at 1 µM came out at 98%.

Turning to `CCOc1ccc(/C=C/c2nc3cc(-c4ccccc4S(N)(=O)=O)ccc3[nH]2)cc1` [Cpd 440, (E)-2-{2-[2-(4-ethoxy-phenyl)-vinyl]-1H-benzimidazol-5-yl}-benzenesulfonamide], in experiment [1], the IC50 is 40 nM and the inhibition at 1 µM is 98%.

On to `Oc1cccc(-c2cc3nc(/C=C/c4ccc(C(F)(F)F)cc4)[nH]c3cc2F)c1` [Cpd 60, (E)-3-{6-fluoro-2-[2-(4-trifluoromethyl-phenyl)-vinyl]-1H-benzimidazol-5-yl}-phenol], for which the inhibition at 1 µM in experiment [1] worked out at 7%.

Take `NS(=O)(=O)c1ccccc1-c1ccc2[nH]c(/C=C/c3cc(F)cc(C(F)(F)F)c3)nc2c1` [Cpd 436, (E)-2-{2-[2-(3-fluoro-5-trifluoromethyl-phenyl)-vinyl]-1H-benzimidazol-5-yl}-benzenesulfonamide]: in experiment [1], the IC50 was determined as 10 nM and the inhibition at 1 µM was 96%.

As for `CC(=O)Nc1ccccc1-c1cc2nc(/C=C/c3ccc(C(F)(F)F)cc3)[nH]c2cc1F` [Cpd 64, (E)-N-(2-{6-fluoro-2-[2-(4-trifluoromethyl-phenyl)-vinyl]-1H-benzimidazol-5-yl}-phenyl)-acetamide], in experiment [1], the inhibition at 1 µM came out at 41%.

For `NS(=O)(=O)c1ccccc1-c1ccc2[nH]c(CCc3ccc(F)cc3C(F)(F)F)nc2c1` [Cpd 404, 2-{2-[2-(4-fluoro-2-trifluoromethyl-phenyl)-ethyl]-1H-benzimidazol-5-yl}-benzenesulfonamide], in experiment [1], the IC50 stood at 47 nM and the inhibition at 1 µM stood at 94%.

Take `CC(C)(C)c1ccc(/C=C/c2nc3cc(-c4ccc(C(N)=O)cc4)ccc3[nH]2)cc1` [Cpd 7, (E)-4-{2-[2-(4-tert-butyl-phenyl)-vinyl]-1H-benzimidazol-5-yl}-benzamide]: the inhibition at 1 µM in experiment [1] was determined as 10%.

On to `NCc1ccccc1-c1ccc2[nH]c(CCc3ccc(C(F)(F)F)cc3)nc2c1` [Cpd 486, 2-{2-[2-(4-trifluoromethyl-phenyl)-ethyl]-1H-benzimidazol-5-yl}-benzylamine], for which the IC50 in experiment [1] is over 500 nM.

In the case of `NS(=O)(=O)c1ccccc1-c1ccc2[nH]c(/C=C/c3ccccc3)nc2c1` [Cpd 426, (E)-2-(2-styryl-1H-benzimidazol-5-yl)-benzenesulfonamide], in experiment [1], the IC50 came to 22 nM and the inhibition at 1 µM came out at 99%.

On to `CN(C)S(=O)(=O)c1ccccc1-c1ccc2[nH]c(/C=C/c3ccc(C(F)(F)F)cc3)nc2c1` [Cpd 398, (E)-N,N-dimethyl-2-{2-[2-(4-trifluoromethyl-phenyl)-vinyl]-1H-benzimidazol-5-yl}-benzenesulfonamide], for which, in experiment [1], the IC50 worked out at 3 nM and the inhibition at 1 µM is 97%.

Consider `NS(=O)(=O)c1ccccc1-c1ccc2[nH]c(/C=C/c3ccc(F)c(C(F)(F)F)c3)nc2c1` [Cpd 369, (E)-2-{2-[2-(4-fluoro-3-trifluoromethyl-phenyl)-vinyl]-1H-benzimidazol-5-yl}-benzenesulfonamide], for which, in experiment [1], the IC50 came to 8 nM and the inhibition at 1 µM stood at 99%.

These data come from US7951829B2, “Benzimidazole modulators of VR1” (Janssen Pharmaceutica NV, priority 2006, dated 2011).
